± gives the expanded uncertainty stated by the source.
How the values were obtained:
[1] = wn = mass fraction of the nth substance listed; details: 101 kPa, Liquid; for viscosity: Concentric cylinders viscometry; for mass density: Vibrating tube method
[2] = refractive index (Na D-line) (dimensionless); wn = mass fraction of the nth substance listed; details: 101 kPa, Liquid, Standard Abbe refractometry

CC(O)CNCC(C)O (stereo not given) [N-(2-hydroxypropyl)-2-hydroxy-1-propanamine] + O
Details	mass density, [1] [kg/m3]	refractive index, [2]	viscosity, [1] [mPa·s]
298.15 K, w1 = 0.05	1000.6 ± 0.041	1.34052 ± 0.00031	1.117 ± 0.0075
298.15 K, w1 = 0.1	1003.53 ± 0.051	1.34766 ± 0.00032	1.394 ± 0.0086
298.15 K, w1 = 0.15	1006.99 ± 0.065	1.35486 ± 0.00032	1.814 ± 0.01
298.15 K, w1 = 0.2	1010.4 ± 0.083	1.3621 ± 0.00033	2.288 ± 0.013
298.15 K, w1 = 0.25	1014.1 ± 0.1	1.36925 ± 0.00033	3.026 ± 0.016
303.15 K, w1 = 0.05	999.133 ± 0.041	1.33988 ± 0.00031	0.9968 ± 0.0072
303.15 K, w1 = 0.1	1001.97 ± 0.05	1.34693 ± 0.00032	1.228 ± 0.008
303.15 K, w1 = 0.15	1005.27 ± 0.064	1.35421 ± 0.00032	1.569 ± 0.0094
303.15 K, w1 = 0.2	1008.5 ± 0.082	1.3613 ± 0.00033	1.952 ± 0.011
303.15 K, w1 = 0.25	1011.98 ± 0.1	1.36822 ± 0.00033	2.539 ± 0.014
308.15 K, w1 = 0.05	997.454 ± 0.042	1.33919 ± 0.00031	0.8984 ± 0.0069
308.15 K, w1 = 0.1	1000.19 ± 0.049	1.34623 ± 0.00032	1.093 ± 0.0075
308.15 K, w1 = 0.15	1003.35 ± 0.063	1.35332 ± 0.00032	1.38 ± 0.0087
308.15 K, w1 = 0.2	1006.41 ± 0.081	1.36036 ± 0.00033	1.695 ± 0.01
308.15 K, w1 = 0.25	1009.69 ± 0.1	1.36736 ± 0.00033	2.167 ± 0.013
313.15 K, w1 = 0.05	995.576 ± 0.042	1.33844 ± 0.00031	0.8189 ± 0.0067
313.15 K, w1 = 0.1	998.214 ± 0.05	1.34533 ± 0.00032	0.9814 ± 0.0072
313.15 K, w1 = 0.15	1001.24 ± 0.062	1.35237 ± 0.00032	1.224 ± 0.0081
313.15 K, w1 = 0.2	1004.14 ± 0.08	1.35947 ± 0.00033	1.485 ± 0.0093
313.15 K, w1 = 0.25	1007.23 ± 0.1	1.36641 ± 0.00033	1.871 ± 0.011
318.15 K, w1 = 0.05	993.508 ± 0.043	1.33755 ± 0.00031	0.7442 ± 0.0065
318.15 K, w1 = 0.1	996.055 ± 0.051	1.3445 ± 0.00032	0.8856 ± 0.0069
318.15 K, w1 = 0.15	998.951 ± 0.062	1.35149 ± 0.00032	1.095 ± 0.0076
318.15 K, w1 = 0.2	1001.71 ± 0.078	1.35838 ± 0.00033	1.313 ± 0.0086
318.15 K, w1 = 0.25	1004.62 ± 0.099	1.36537 ± 0.00033	1.633 ± 0.01
323.15 K, w1 = 0.05	991.263 ± 0.044	1.33675 ± 0.00031	0.6884 ± 0.0063
323.15 K, w1 = 0.1	993.722 ± 0.052	1.34355 ± 0.00032	0.8047 ± 0.0067
323.15 K, w1 = 0.15	996.497 ± 0.063	1.35044 ± 0.00032	0.9924 ± 0.0073
323.15 K, w1 = 0.2	999.106 ± 0.078	1.35739 ± 0.00033	1.171 ± 0.0081
323.15 K, w1 = 0.25	1001.86 ± 0.098	1.36423 ± 0.00033	1.438 ± 0.0094
328.15 K, w1 = 0.05	988.852 ± 0.045	1.33566 ± 0.00031	0.6407 ± 0.0062
328.15 K, w1 = 0.1	991.224 ± 0.053	1.34256 ± 0.00032	0.7357 ± 0.0065
328.15 K, w1 = 0.15	993.882 ± 0.064	1.3494 ± 0.00032	0.9053 ± 0.007
328.15 K, w1 = 0.2	996.358 ± 0.079	1.35615 ± 0.00033	1.052 ± 0.0076
328.15 K, w1 = 0.25	998.953 ± 0.097	1.36294 ± 0.00033	1.278 ± 0.0087
333.15 K, w1 = 0.05	986.277 ± 0.046	1.33467 ± 0.00031	0.5833 ± 0.006
333.15 K, w1 = 0.1	988.56 ± 0.054	1.34147 ± 0.00032	0.6793 ± 0.0063
333.15 K, w1 = 0.15	991.114 ± 0.065	1.34831 ± 0.00032	0.8324 ± 0.0068
333.15 K, w1 = 0.2	993.463 ± 0.08	1.35501 ± 0.00033	0.9512 ± 0.0073
333.15 K, w1 = 0.25	995.91 ± 0.098	1.36175 ± 0.00033	1.145 ± 0.0082
338.15 K, w1 = 0.05	983.349 ± 0.047	1.33363 ± 0.00031	0.5507 ± 0.0059
338.15 K, w1 = 0.1	985.762 ± 0.055	1.34037 ± 0.00032	0.6341 ± 0.0062
338.15 K, w1 = 0.15	988.199 ± 0.066	1.34702 ± 0.00032	0.7693 ± 0.0066
338.15 K, w1 = 0.2	990.404 ± 0.08	1.35377 ± 0.00033	0.8643 ± 0.007
338.15 K, w1 = 0.25	992.735 ± 0.099	1.36051 ± 0.00033	1.032 ± 0.0078
343.15 K, w1 = 0.05	980.387 ± 0.048	1.33224 ± 0.00031	0.5267 ± 0.0059
343.15 K, w1 = 0.1	982.81 ± 0.056	1.33899 ± 0.00032	0.6006 ± 0.0061
343.15 K, w1 = 0.15	985.138 ± 0.067	1.34583 ± 0.00032	0.725 ± 0.0065
343.15 K, w1 = 0.2	987.241 ± 0.081	1.35253 ± 0.00033	0.8146 ± 0.0069
343.15 K, w1 = 0.25	989.434 ± 0.1	1.35922 ± 0.00033	0.9579 ± 0.0075
